Measured values published in publication PMC5076529, “Binding Sites for Acylated Trehalose Analogs of Glycolipid Ligands on an Extended Carbohydrate Recognition Domain of the Macrophage Receptor Mincle” (The Journal of Biological Chemistry, 2016).

What was measured:
[1] = target: T1, mincle minimal CRD (bovine) (Bos taurus, UniProt E1BHM0, I174T); experiment: competition with […]-mannose-BSA on immobilized CRD; assay type: binding
T1 construct: gene CLEC4E; minimal C-type carbohydrate recognition domain, N-terminally truncated, lacks disulfide 4; E. coli, renatured from inclusion bodies
T1 sequence (E1BHM0 79-211 I174T): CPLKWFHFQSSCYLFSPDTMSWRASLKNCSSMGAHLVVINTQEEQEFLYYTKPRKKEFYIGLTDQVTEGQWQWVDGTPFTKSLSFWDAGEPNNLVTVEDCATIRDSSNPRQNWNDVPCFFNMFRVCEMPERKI

[2] = target: T2, mincle extended CRD (bovine) (Bos taurus, UniProt E1BHM0, I174T); experiment: X-ray crystallography, […] Å; settings: pH 5.5 reservoir; primary sugar-binding site, conserved Ca2+
T2 construct: gene CLEC4E; extended CRD from Glu-64 to C terminus with one extra N-terminal Ala, includes disulfide 4; E. coli BL21(DE3) inclusion bodies, renatured, trehalose-Sepharose
T2 sequence (E1BHM0 64-211 I174T): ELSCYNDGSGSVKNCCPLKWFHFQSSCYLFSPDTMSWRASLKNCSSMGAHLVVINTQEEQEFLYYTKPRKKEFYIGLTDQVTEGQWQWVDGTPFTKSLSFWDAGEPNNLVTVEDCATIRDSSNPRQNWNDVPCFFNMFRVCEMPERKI

[3] = target: T2, mincle extended CRD (bovine); experiment: X-ray crystallography, […] Å; settings: pH 5.6 reservoir; primary sugar-binding site, conserved Ca2+; second substituent not visible
[4] = target: T1, mincle minimal CRD (bovine); experiment: X-ray crystallography, […] Å; settings: pH 5.6; primary sugar-binding site, conserved Ca2+; acyl chain only partly visible

Ki [1] [µM] | Structure (SMILES) | other results
3.1 ± 0.5 | CCCCCCCCCCCC(=O)OC[C@H]1O[C@H](O[C@H]2O[C@H](CO)[C@@H](O)[C@H](O)[C@H]2O)[C@H](O)[C@@H](O)[C@@H]1O [Monododecanoate] | 
 | Cc1cc(O)cc(O)c1C(=O)OC[C@H]1O[C@H](O[C@H]2O[C@H](COC(=O)c3c(C)cc(O)cc3O)[C@@H](O)[C@H](O)[C@H]2O)[C@H](O)[C@@H](O)[C@@H]1O [brartemicin] | X-ray crystallography, 2.20 Å [2]: structures of the extended CRD bound to either natural brartemicin or a synthetic analog
137 ± 18 | CCCCCCC(=O)OC[C@H]1O[C@H](O[C@H]2O[C@H](CO)[C@@H](O)[C@H](O)[C@H]2O)[C@H](O)[C@@H](O)[C@@H]1O [Monoheptanoate] | 
 | COc1cccc(C(=O)OC[C@H]2O[C@H](O[C@H]3O[C@H](COC(=O)c4cccc(OC)c4OC)[C@@H](O)[C@H](O)[C@H]3O)[C@H](O)[C@@H](O)[C@@H]2O)c1OC [brartemicin analog] | X-ray crystallography, 1.80 Å [3]: The structure of mincle bound to a synthetic analog of brartemicin was also examined
59 ± 2 | CCCCC(=O)OC[C@H]1O[C@H](O[C@H]2O[C@H](COC(=O)CCCC)[C@@H](O)[C@H](O)[C@H]2O)[C@H](O)[C@@H](O)[C@@H]1O [Divalerate] | 
 | CCCC(=O)OC[C@H]1O[C@H](O[C@H]2O[C@H](CO)[C@@H](O)[C@H](O)[C@H]2O)[C@H](O)[C@@H](O)[C@@H]1O [trehalose monobutyrate] | X-ray crystallography, 2.10 Å [4]: Co-crystals of trehalose monobutyrate and the CRD of mincle were examined
370 ± 40 | CC(C)C(=O)OC[C@H]1O[C@H](O[C@H]2O[C@H](COC(=O)C(C)C)[C@@H](O)[C@H](O)[C@H]2O)[C@H](O)[C@@H](O)[C@@H]1O [Diisobutyrate] | 
5.1 ± 0.6 | CCCCCCCCCC(=O)OC[C@H]1O[C@H](O[C@H]2O[C@H](CO)[C@@H](O)[C@H](O)[C@H]2O)[C@H](O)[C@@H](O)[C@@H]1O [Monodecanoate] | 
8.2 ± 0.3 | CCCCCC(=O)OC[C@H]1O[C@H](O[C@H]2O[C@H](COC(=O)CCCCC)[C@@H](O)[C@H](O)[C@H]2O)[C@H](O)[C@@H](O)[C@@H]1O [Dihexanoate] | 
